Experimental data taken from patent US12091393B2, “Small molecule vaccine adjuvant for enhancing or prolonging immune response” (The Regents of the University of California, priority 2018, dated 2024).
Entries after “also recorded” stand apart in the source; their conditions may differ. Where two headings read alike, the source gives them in different places.

Assays:
NF-κB [1] = test: cell-based NF-κB FRET assay; details: compound + LPS; two point normalized, compound 1 as 200%, LPS (10 ng/mL) as 100%
From the text: Site A was assigned the 4-substituent of thiazole ring, site B was the thiazole ring itself, site C was the central amide bond in the structure, site D was the benzene ring bearing 1,4-carboxyl and sulfamoyl group, site E was the sulfonamide functional group and site F was the amide substituent on the sulfamoyl group.

NF-κB [2] = test: Measurement of NF-κB activation using THP1-Blue NF-κB cells (SEAP); format: cell-based; details: for activity at 5 µM: 20 h, two point normalized, compound 1 as 200%; for NF-κB activity (SAR discussion, in words): evaluated in both the presence and absence of LPS
THP-1 cells = test: Cell viability assay (MTT); format: cell-based; details: compound 5 μM alone, 18 h, normalized to DMSO as 100%
Method: THP-1 cells were plated in 96-well plates (10^5 cells/well) in 100 μL RPMI supplemented with 10% FBS, 100 U/mL penicillin and 100 μg/ml streptomycin. Compounds were dissolved in DMSO at 1 mM stock solution and were further diluted to 10 μM in the assay medium. 100 μL of this solution was added to the cells to obtain a final compound concentration of 5 μM ([…]). After 18 h incubation, a solution of MTT in assay media (0.5 mg/mL) was added to each well and further incubated for 4 to 6 h, followed by addition of cell lysis buffer (15% w/v SDS and 0.12% v/v 12N HCl aqueous solution), incubated overnight, and then absorbance measured at 570 nm using 650 nm as reference using Tecan Infinite M200 plate reader.

[3] = compound 5 μM + LPS, LPS (10 ng/mL) as 100%, read-out: NF-κB SEAP Compound + LPS % Activation
[4] = compound 5 μM alone, LPS or DMSO as 100%, read-out: NF-κB SEAP Compound alone % Activation

Compound	NF-κB FRET Compound + LPS % Activation (NF-κB [1])	activity at 5 µM (NF-κB [2]; [3])	activity at 5 µM (NF-κB [2]; [4])	NF-κB activity (SAR discussion, in words) (NF-κB [2])	MTT Compound alone % Viability (THP-1 cells)	NF-κB activity when tested alone (in words) (NF-κB [2]; compound alone, without LPS)
Cc1ccc(C)c(-c2csc(NC(=O)c3ccc(S(=O)(=O)C4CCCCC4)cc3)n2)c1 [Compound 49b, 4-(cyclohexylsulfonyl)-N-(4-(2,5-dimethylphenyl)thiazol-2-yl)benzamide]	136.43%	114%	99.8%	none of these modifications at site D or E were tolerated	81.81%	
CCOC1CCN(S(=O)(=O)c2ccc(C(=O)Nc3nc(-c4cc(C)ccc4C)cs3)cc2)CC1 [Compound 58g, N-(4-(2,5-dimethylphenyl)thiazol-2-yl)-4-((4-ethoxypiperidin-1-yl)sulfonyl)benzamide]	189.46%	178%	200%	active	112.63%	
CCCC#Cc1sc(NC(=O)c2ccc(S(=O)(=O)N3CCC(CCC)CC3)cc2)nc1-c1cc(C)ccc1C [Compound 61, N-(4-(2,5-dimethylphenyl)-5-(pent-1-yn-1-yl)thiazol-2-yl)-4-((4-propylpiperidin-1-yl)sulfonyl)benzamide]	207.19%	189%	119%	very potent and showed better potency than compound 1	102.98%	
CCC#Cc1sc(NC(=O)c2ccc(S(=O)(=O)N3CCCCC3)cc2)nc1-c1cc(C)ccc1C [Compound 18p, N-(5-(but-1-yn-1-yl)-4-(2,5-dimethylphenyl)thiazol-2-yl)-4-(piperidin-1-ylsulfonyl)benzamide]	210.21%	192%	291%		120.17%	very potent
CCCN(CCC)S(=O)(=O)c1ccc(C(=O)Nc2nc(-c3cc(C)ccc3C)cs2)cc1 [Compound 58b, N-(4-(2,5-dimethylphenyl)thiazol-2-yl)-4-(N,N-dipropylsulfamoyl)benzamide]	190.52%	260%	243%	tolerated; also recorded: active	83.69%	
CC(C)(C)Cc1csc(NC(=O)c2ccc(S(=O)(=O)N3CCCCC3)cc2)n1 [Compound 12j, N-(4-neopentylthiazol-2-yl)-4-(piperidin-1-ylsulfonyl)benzamide]	110.62%	93.9%	99.5%	None of these molecules had any NF-κB activity	125.52%	
Cc1ccc2c(c1)-c1nc(NC(=O)c3ccc(S(=O)(=O)N4CCCCC4)cc3)sc1CC2 [Compound 12s, N-(8-methyl-4,5-dihydronaphtho[1,2-d]thiazol-2-yl)-4-(piperidin-1-ylsulfonyl)benzamide]	159.62%	141%	128%	weakly active	102.16%	
Cc1ccc(C)c(-c2csc(C(=O)Nc3ccc(S(=O)(=O)N4CCCCC4)cc3)n2)c1 [Compound 34b, 4-(2,5-dimethylphenyl)-N-(4-(piperidin-1-ylsulfonyl)phenyl)thiazole-2-carboxamide]	134.57%	104%	98.8%	weak activity	91.08%	
CCCN1CCN(S(=O)(=O)c2ccc(C(=O)Nc3nc(-c4cc(C)ccc4C)cs3)cc2)CC1 [Compound 58k, N-(4-(2,5-dimethylphenyl)thiazol-2-yl)-4-((4-propylpiperazin-1-yl)sulfonyl)benzamide]	100.84%	110%	101%	inactive	50.85%	
CCCN(CC)S(=O)(=O)c1ccc(C(=O)Nc2nc(-c3cc(C)ccc3C)cs2)cc1 [Compound 58a, N-(4-(2,5-dimethylphenyl)thiazol-2-yl)-4-(N-ethyl-N-propylsulfamoyl)benzamide]	158.36%	217%	207%	tolerated; also recorded: active	73.63%	
Cc1cccc(-c2csc(NC(=O)c3ccc(S(=O)(=O)N4CCCCC4)cc3)n2)c1 [Compound 12c, 4-(piperidin-1-ylsulfonyl)-N-(4-(m-tolyl)thiazol-2-yl)benzamide]	78.98%	98.6%	99.5%	inactive	96.06%	
Cc1ccc(C)c(-c2csc(NC(=O)c3ccc(C(=O)N4CCCCC4)cc3)n2)c1 [Compound 49c, N-(4-(2,5-dimethylphenyl)thiazol-2-yl)-4-(piperidine-1-carbonyl)benzamide]	134.09%	109%	99.3%	none of these modifications at site D or E were tolerated	87.59%	
Cc1csc(NC(=O)c2ccc(S(=O)(=O)N3CCCCC3)cc2)n1 [Compound 12g, N-(4-methylthiazol-2-yl)-4-(piperidin-1-ylsulfonyl)benzamide]	110.48%	101%	99.9%	None of these molecules had any NF-κB activity	114.29%	
C#CCN(CCC)S(=O)(=O)c1ccc(C(=O)Nc2nc(-c3cc(C)ccc3C)cs2)cc1 [Compound 72c, N-(4-(2,5-dimethylphenyl)thiazol-2-yl)-4-(N-(prop-2-yn-1-yl)-N-propylsulfamoyl)benzamide]	133.88%	122%	103%	lost their activity	84.00%	
Cc1ccc(C)c(-c2csc(NC(=O)c3ccc(S(=O)(=O)N4CCCCC4)cn3)n2)c1 [Compound 46a, N-(4-(2,5-dimethylphenyl)thiazol-2-yl)-5-(piperidin-1-ylsulfonyl)picolinamide]	151.90%	111%	99.2%	none of these modifications at site D or E were tolerated	94.46%	
Cc1ccc(C)c(-c2ccc(NC(=O)c3ccc(S(=O)(=O)N4CCCCC4)cc3)nc2)c1 [Compound 18c, N-(5-(2,5-dimethylphenyl)pyridin-2-yl)-4-(piperidin-1-ylsulfonyl)benzamide]	73.65%	97.9%	98.3%	none of these molecules that replaced the thiazole functionality were active	92.06%	
C#CC1CCN(S(=O)(=O)c2ccc(C(=O)Nc3nc(-c4cc(C)ccc4C)cs3)cc2)CC1 [Compound 72d, N-(4-(2,5-dimethylphenyl)thiazol-2-yl)-4-((4-ethynylpiperidin-1-yl)sulfonyl)benzamide]	123.22%	152%	112%	active	83.27%	
Cc1ccc(C)c(-c2csc(NS(=O)(=O)c3ccc(C(=O)N4CCCCC4)cc3)n2)c1 [Compound 55, N-(4-(2,5-dimethylphenyl)thiazol-2-yl)-4-(piperidine-1-carbonyl)benzenesulfonamide]	70.37%	91.7%	103%	inactive	58.91%	
CCc1csc(NC(=O)c2ccc(S(=O)(=O)N3CCCCC3)cc2)n1 [Compound 12h, N-(4-ethylthiazol-2-yl)-4-(piperidin-1-ylsulfonyl)benzamide]	108.38%	94%	98.7%	None of these molecules had any NF-κB activity	122.75%	
Cc1ccc(N=[N+]=[N-])c(-c2csc(NC(=O)c3ccc(S(=O)(=O)N4CCCCC4)cc3)n2)c1 [Compound 70, N-(4-(2-azido-5-methylphenyl)thiazol-2-yl)-4-(piperidin-1-ylsulfonyl)benzamide]	70.93%	97.3%	101%	inactive	77.84%	
